One compound from ChEMBL document CHEMBL1150661, “Panepophenanthrin, from a mushroom strain, a novel inhibitor of the ubiquitin-activating enzyme” (J Nat Prod, 2002) can be followed below.

This experiment concerns the target T1, Ubiquitin-like modifier-activating enzyme 1 (Homo sapiens, UniProt P22314).
T1 sequence (P22314 whole entry): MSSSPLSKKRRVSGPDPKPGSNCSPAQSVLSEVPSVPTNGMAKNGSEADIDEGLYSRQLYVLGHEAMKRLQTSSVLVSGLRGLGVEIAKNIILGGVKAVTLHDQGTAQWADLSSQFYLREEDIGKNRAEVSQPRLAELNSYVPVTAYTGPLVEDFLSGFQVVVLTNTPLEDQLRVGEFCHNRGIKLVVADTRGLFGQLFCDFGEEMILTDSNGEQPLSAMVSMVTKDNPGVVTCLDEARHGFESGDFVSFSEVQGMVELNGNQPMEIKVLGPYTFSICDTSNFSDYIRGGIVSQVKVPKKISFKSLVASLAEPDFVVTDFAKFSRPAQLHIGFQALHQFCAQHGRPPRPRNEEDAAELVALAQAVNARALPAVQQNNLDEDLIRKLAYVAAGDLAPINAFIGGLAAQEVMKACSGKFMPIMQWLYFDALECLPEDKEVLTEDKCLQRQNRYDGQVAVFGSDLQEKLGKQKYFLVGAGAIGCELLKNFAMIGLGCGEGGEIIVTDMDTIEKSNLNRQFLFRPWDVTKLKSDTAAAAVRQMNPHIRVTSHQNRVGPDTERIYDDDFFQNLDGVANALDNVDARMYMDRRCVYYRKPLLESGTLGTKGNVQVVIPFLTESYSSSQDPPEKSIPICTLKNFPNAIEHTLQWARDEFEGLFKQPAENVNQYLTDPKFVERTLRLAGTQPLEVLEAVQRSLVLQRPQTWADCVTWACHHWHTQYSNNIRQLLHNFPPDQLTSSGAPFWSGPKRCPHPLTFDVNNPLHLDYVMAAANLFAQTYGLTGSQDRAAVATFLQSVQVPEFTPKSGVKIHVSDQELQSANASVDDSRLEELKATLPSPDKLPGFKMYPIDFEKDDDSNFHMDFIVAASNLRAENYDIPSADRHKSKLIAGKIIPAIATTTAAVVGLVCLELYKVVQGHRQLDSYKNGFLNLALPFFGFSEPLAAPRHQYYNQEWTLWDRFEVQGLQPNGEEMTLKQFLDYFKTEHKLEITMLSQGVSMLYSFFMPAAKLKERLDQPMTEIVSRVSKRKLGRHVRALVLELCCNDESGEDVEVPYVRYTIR
The experiment can be described thus: Inhibition of human recombinant E1-ubiquitin complex formation.

`CC(C)(O)/C=C/[C@@]12[C@H]3[C@@H](O)[C@@H]4O[C@@H]4[C@]1(O)OC(C)(C)[C@@H]2C=C1C(=O)[C@H]2O[C@H]2[C@H](O)[C@H]13` [PANEPOPHENANTHRIN]: the IC50 is 40.4 µM.
